# Source: patent US11572590B2, “Methods for evaluating tumor cell spheroids using 3D microfluidic cell culture device” (Dana-Farber Cancer Institute, Inc., priority 2017, dated 2023)
# Where two headings read alike, the source gives them in different places.
# Key:
# Experiment in all cases: SelectScreen Kinase Profiling, single point inhibition and IC50 for off-target kinases
# Assay type in all cases: biochemical
# off-target kinases [1] = target: T1, off-target kinases (Homo sapiens, UniProt P54760); settings: EPHB4, ZLYTE, ATP Km app
# T1 sequence (P54760 16-987): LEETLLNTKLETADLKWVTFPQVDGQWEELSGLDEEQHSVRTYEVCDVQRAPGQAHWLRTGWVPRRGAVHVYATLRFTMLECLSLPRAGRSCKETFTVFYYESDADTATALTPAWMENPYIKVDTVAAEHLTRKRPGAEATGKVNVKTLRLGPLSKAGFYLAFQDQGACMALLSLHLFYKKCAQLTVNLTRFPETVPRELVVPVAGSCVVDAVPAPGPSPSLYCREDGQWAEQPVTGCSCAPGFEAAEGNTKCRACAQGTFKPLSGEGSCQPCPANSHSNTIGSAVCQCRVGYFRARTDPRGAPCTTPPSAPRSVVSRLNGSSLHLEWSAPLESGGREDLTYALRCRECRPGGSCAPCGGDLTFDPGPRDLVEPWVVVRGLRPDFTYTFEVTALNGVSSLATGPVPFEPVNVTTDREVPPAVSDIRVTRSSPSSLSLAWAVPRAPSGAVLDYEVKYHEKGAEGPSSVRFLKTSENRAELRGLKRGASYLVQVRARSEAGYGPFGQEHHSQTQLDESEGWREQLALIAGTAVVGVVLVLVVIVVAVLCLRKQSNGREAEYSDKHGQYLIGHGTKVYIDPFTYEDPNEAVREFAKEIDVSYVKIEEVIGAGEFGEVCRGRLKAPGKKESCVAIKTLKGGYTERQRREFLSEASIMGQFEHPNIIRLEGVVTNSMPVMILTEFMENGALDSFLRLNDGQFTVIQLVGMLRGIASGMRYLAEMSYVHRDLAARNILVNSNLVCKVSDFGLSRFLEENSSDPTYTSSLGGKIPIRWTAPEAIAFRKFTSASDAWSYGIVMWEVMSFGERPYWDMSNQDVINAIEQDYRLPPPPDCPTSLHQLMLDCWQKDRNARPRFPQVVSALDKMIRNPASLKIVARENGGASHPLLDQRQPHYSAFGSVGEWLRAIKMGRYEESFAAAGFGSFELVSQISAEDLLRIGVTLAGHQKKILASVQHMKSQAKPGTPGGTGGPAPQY
# off-target kinases [2] = target: T2, off-target kinases (Homo sapiens, UniProt Q05513); settings: PRKCZ (PKC zeta); Cmpd1 1000 μM; ATP Km app; ZLYTE
# T2 sequence (Q05513 1-592): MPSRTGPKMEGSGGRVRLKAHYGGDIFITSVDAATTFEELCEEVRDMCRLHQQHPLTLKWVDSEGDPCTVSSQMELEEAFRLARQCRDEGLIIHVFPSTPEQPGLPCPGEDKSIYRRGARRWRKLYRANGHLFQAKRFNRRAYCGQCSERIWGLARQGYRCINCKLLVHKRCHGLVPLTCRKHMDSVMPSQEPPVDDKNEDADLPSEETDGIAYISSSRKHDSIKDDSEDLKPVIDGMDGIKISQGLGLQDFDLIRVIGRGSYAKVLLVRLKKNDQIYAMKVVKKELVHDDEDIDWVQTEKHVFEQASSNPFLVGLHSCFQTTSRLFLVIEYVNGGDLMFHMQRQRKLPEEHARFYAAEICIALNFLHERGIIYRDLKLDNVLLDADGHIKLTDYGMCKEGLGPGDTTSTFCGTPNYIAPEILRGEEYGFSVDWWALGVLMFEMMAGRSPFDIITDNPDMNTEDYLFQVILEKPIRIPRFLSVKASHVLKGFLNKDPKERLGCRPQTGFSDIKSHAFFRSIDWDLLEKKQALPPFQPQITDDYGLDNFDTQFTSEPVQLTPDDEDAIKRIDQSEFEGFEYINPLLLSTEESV
# off-target kinases [3] = target: off-target kinases (Homo sapiens, UniProt P10721, V654A); settings: KIT V654A (mutant), LanthaScreen Binding
# off-target kinases [4] = target: off-target kinases (Homo sapiens, UniProt O75676); settings: RPS6KA4 (MSK2), ZLYTE, ATP Km app
# Sequence of off-target kinases (Homo sapiens, UniProt O75676) (O75676 whole entry): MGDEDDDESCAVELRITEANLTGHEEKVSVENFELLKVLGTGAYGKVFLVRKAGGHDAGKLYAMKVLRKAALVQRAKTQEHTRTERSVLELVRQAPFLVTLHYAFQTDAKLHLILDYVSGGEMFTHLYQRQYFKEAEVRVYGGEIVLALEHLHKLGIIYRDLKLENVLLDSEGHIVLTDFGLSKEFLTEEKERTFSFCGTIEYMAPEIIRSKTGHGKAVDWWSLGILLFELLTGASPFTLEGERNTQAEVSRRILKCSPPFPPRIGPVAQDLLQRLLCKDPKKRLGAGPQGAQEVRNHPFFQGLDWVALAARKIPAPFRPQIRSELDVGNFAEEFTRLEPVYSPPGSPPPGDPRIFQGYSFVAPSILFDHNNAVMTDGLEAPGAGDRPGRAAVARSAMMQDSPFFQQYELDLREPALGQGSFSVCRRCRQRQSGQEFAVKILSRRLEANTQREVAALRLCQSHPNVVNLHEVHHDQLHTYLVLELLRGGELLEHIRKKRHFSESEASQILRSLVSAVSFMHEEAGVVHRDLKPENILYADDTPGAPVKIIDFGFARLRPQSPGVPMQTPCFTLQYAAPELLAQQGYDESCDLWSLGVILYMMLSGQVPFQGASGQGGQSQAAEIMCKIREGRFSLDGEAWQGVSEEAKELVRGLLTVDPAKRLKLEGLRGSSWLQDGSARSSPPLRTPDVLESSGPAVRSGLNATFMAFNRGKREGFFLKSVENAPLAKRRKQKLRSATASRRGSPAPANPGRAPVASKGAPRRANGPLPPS
# Sequence of off-target kinases (Homo sapiens, UniProt P10721, V654A) (P10721 26-976 V654A): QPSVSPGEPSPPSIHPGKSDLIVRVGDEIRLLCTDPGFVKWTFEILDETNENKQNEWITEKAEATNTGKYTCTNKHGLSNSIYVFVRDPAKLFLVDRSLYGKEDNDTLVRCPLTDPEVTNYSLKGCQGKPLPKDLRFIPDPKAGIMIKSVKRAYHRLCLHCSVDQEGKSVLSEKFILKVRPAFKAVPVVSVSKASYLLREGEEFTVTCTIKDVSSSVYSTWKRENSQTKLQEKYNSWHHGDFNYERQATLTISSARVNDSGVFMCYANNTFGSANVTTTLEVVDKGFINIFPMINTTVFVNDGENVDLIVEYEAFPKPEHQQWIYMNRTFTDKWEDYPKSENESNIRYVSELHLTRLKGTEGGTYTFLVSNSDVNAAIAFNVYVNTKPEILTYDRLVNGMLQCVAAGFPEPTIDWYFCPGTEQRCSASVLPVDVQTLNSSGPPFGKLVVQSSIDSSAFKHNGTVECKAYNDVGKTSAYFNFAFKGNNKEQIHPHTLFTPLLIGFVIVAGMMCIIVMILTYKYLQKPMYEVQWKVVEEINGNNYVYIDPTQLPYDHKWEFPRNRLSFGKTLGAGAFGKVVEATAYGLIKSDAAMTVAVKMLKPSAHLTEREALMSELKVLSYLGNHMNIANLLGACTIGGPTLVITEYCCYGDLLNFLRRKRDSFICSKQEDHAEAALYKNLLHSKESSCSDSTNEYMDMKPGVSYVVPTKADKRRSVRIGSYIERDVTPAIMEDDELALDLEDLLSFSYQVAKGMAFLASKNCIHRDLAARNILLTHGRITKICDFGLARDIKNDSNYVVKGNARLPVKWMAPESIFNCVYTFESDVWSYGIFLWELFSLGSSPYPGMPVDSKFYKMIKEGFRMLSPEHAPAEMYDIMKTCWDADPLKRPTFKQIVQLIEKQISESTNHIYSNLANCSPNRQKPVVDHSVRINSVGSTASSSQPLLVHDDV
compound,measurement,setting,value
"N#Cc1cc(-c2ncnc(Nc3ccc(N4CCN(C5COC5)CC4)cc3)n2)ccc1OC1CCOCC1 [Compound 1, 5-(4-((4-(4-(oxetan-3-yl)piperazin-1-yl)phenyl)amino)-1,3,5-triazin-2-yl)-2-((tetrahydro-2H-pyran-4-yl)oxy)benzonitrile]",inhibition,off-target kinases [1]; read-out: % Inhibition 1,15%
same,inhibition,off-target kinases [1]; read-out: % Inhibition 2,14%
same,inhibition,off-target kinases [1]; read-out: % Inhibition Avg,15%
same,% Inhibition 1,off-target kinases [2],−18%
same,% Inhibition 2,off-target kinases [2],−16%
same,% Inhibition Avg,off-target kinases [2],−17%
same,inhibition,off-target kinases [3]; read-out: % Inhibition 1,7%
same,inhibition,off-target kinases [3]; read-out: % Inhibition 2,10%
same,inhibition,off-target kinases [3]; read-out: % Inhibition Avg,9%
same,inhibition,off-target kinases [4]; read-out: % Inhibition 1,0%
same,inhibition,off-target kinases [4]; read-out: % Inhibition 2,2%
same,inhibition,off-target kinases [4]; read-out: % Inhibition Avg,1%
